Where two headings read alike, the source gives them in different places.
Key:
[1] = tested on: human dedifferentiated fat (DFAT) cells; experiment: Osteogenic differentiation assay: ALP activity in human DFAT cells; assay type: cell-based; conditions: osteogenic medium, 100 nM, 7 days, natural hormone 1 = 100%
Experimental: Mature adipocytes from the adipose tissue of mammals such as humans and rodents can be dedifferentiated into pluripotent cells using ceiling culture. Dedifferentiated fat (DFAT) cells have potential applications in both regenerative medicine and injury healing, as well as mesenchymal stem cells, embryonic stem cells, and induced pluripotent stem cells. The osteogenic activity of vitamin D derivatives was assessed based on alkaline phosphatase (ALP) activity.
Samples of human subcutaneous adipose tissue were obtained from patients who underwent surgery in the Department of Pediatric Surgery at Nihon University Itabashi Hospital (Tokyo, Japan). The patients gave their written informed consent, and the Ethics Committee of Nihon University School of Medicine approved this study. We prepared dedifferentiated fat (DFAT) cells using the ceiling culture method, as described previously. Briefly, the adipose tissue (approximately 1 g) was cut into small pieces and digested with a 0.1% type I collagenase solution (Koken Co., Ltd., Tokyo, Japan). […] The cells that adhered to the upper surface of the flasks were cultured for conversion to dedifferentiated fat cells. […] Cells at passages 2–4 were used for differentiation experiments.
Cells were grown to confluency in 24-well plates and incubated for a week in DMEM containing 10% FBS, 100 nM dexamethasone (Merk), 10 mM β-glycerophosphate (Merk), and […] L-ascorbic acid-2-phosphate (Merk), with 100 nM of each compound. The induction medium was replaced on day 4. The alkaline phosphatase (ALP) activity in the cell lysates was determined on day 7 with a lab assay ALP kit (Fujifilm wako). The total protein content was determined with the BCA protein assay kit (Thermo Fisher Scientific). ALP levels were normalized to the total protein content.

VDR [2] = conditions: literature values, cited from earlier work; for EC50: read-out: Transcriptional Activity EC50
VDR [3] = conditions: cited from earlier work; for IC50: literature values, read-out: VDR Affinity IC50; for VDR affinity, % of that of 1: relative to 1,25(OH)2D3 (1)
VDR [4] = conditions: antagonist activity for 1; read-out: Antagonistic Activity IC50; cited from earlier work

Row | Compound | ALP activity [1] | Transcriptional Activity % Efficacy of That of 1 (VDR [2]) | IC50 (VDR [3]) | VDR affinity, % of that of 1 (VDR [3]) | EC50 (VDR [2]) | IC50 (VDR [4])
1 | C=C1/C(=C\C=C2/CCC[C@]3(C)[C@@H]([C@H](C)CCCC(C)(C)O)CC[C@@H]23)C[C@@H](O)C[C@@H]1O [1,25(OH)2D3, 1α,25-dihydroxyvitamin D3] | 100% | – | – | – | – | –
2 | C=C1[C@H](O)CC(=C/C=C2\CCC[C@]3(C)[C@@H]([C@@H](C)/C=C/C[C@H](O)CC45CC6CC(CC(C6)C4)C5)CC[C@@H]23)C[C@H]1O [ADMI3, (25S)-26-adamantyl-25-hydroxy-2-methylene-22,23-didehydro-19,27-dinor-20-epi-vitamin D3] | – | 10% | 0.6 nM | 17% | – | –
3 | C=C1/C(=C\C=C2/CCC[C@]3(C)[C@@H]([C@H](C)CC#C[C@@H](O)C45CC6CC(CC(C6)C4)C5)CC[C@@H]23)C[C@@H](O)C[C@@H]1O [ADOR1, 25 S-sdamantyl-23-yne-26,27-dinor-1α,25-dihydroxyvitamin D(3)] | – | 87% | 0.24 nM | – | 0.03 nM | –
4 | C=C1/C(=C\C=C2/CCC[C@]3(C)[C@@H]([C@H](C)CC#C[C@H](O)C45CC6CC(CC(C6)C4)C5)CC[C@@H]23)C[C@@H](O)C[C@@H]1O [ADOR2] | – | > 52% | 0.6 nM | – | 5.7 nM | –
5 | C=C1[C@H](O)CC(=C/C=C2\CCC[C@]3(C)[C@@H]([C@@H](C)/C=C/C[C@@H](O)C45CC6CC(CC(C6)C4)C5)CC[C@@H]23)C[C@H]1O [ADTT] | – | 15% | 0.13 nM | 67% | 1 nM | 3 nM
6 | C=C1C[C@H](C[C@@H](C)[C@H]2CC[C@H]3/C(=C/C=C4/C[C@@H](O)C[C@H](O)C4=C)CCC[C@]23C)OC1=O [TEI-9647, (23S)-25-dehydro-1α-hydroxyvitamin D3-26,23-lactone] | – | – | 1 nM | – | 50 nM | 100 nM
7 | C=C1/C(=C\C=C2/CCC[C@]3(C)[C@@H]([C@H](C)/C=C/[C@@H](O)C4(C(=O)O/C=C\C(=O)OCC)CC4)CC[C@@H]23)C[C@@H](O)C[C@@H]1O [ZK168281] | – | – | – | – | – | 50 nM

— paper PMC10377034, “Syntheses of 25-Adamantyl-25-alkyl-2-methylidene-1α,25-dihydroxyvitamin D3 Derivatives with Structure–Function Studies of Antagonistic and Agonistic Active Vitamin D Analogs” (Biomolecules, 2023)
